Source: patent US20210380606A1, “5-AZAINDAZOLE DERIVATIVES AS ADENOSINE RECEPTOR ANTAGONISTS” (Merck Patent GmbH, priority 2018, published 2021)
Like-named read-outs stand apart in the source and are kept apart here.

Tests used:
human A2A receptors = biological target: T1, human A2A receptors (Homo sapiens, UniProt P29274); test: Functional human A2A receptor activity, recombinant HEK293 cells, cAMP (HTRF); type: cell-based; details: read-out: A2A (Category)
T1 construct: expressed in transfected cells; host or cells: HEK293
Summary of the method: (§1)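 Following a 15 min incubation, HTRF detection reagents are added and intracellular cAMP is quantified.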

human A2B receptors = biological target: T2, human A2B receptors (Homo sapiens, UniProt P29275); test: Functional human A2B receptor activity, recombinant HEK293 cells, cAMP (HTRF); type: cell-based; details: read-out: A2B (Category)
T2 construct: expressed in transfected cells; host or cells: HEK293
T2 sequence (P29275 1-332): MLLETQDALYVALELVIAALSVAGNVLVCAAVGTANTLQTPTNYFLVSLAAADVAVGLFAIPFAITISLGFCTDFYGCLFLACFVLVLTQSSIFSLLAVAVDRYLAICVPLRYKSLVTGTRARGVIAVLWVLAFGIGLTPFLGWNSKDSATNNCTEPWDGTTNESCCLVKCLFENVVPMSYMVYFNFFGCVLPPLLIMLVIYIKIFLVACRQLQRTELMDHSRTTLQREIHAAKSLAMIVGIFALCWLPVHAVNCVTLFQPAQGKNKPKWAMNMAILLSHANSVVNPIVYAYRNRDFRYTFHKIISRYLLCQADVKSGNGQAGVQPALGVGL
Summary of the method: as §1

T1 sequence (P29274 whole entry): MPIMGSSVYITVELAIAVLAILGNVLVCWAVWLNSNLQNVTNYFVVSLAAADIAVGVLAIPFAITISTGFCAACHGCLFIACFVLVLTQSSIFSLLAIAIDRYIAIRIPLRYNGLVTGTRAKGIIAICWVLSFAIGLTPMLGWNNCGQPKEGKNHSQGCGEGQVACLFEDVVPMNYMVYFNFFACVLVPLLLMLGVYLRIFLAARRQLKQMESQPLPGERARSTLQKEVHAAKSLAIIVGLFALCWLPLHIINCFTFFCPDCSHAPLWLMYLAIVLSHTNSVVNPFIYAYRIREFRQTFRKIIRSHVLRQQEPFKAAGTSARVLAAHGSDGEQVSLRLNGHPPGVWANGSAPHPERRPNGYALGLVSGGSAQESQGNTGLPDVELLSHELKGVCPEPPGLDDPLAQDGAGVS

SMILES	IC50 (human A2A receptors)	IC50 (human A2B receptors)	IC50 (human A2A receptors; recombinant HEK293 cells expressing human A2A receptor, agonist NECA, cAMP HTRF, 15 min incubation)	IC50 (human A2B receptors; recombinant HEK293 cells expressing human A2B receptor, agonist NECA, cAMP HTRF, 15 min incubation)
O=C(c1cc2c(cn1)c(-c1cnc3ccccn13)nn2CC(F)(F)F)N1[C@@H]2CC[C@H]1C[C@@H](O)C2 [Compound 87, [3-(imidazo[1,2-a]pyridin-3-yl)-1-(2,2,2-trifluoroethyl)pyrazolo[4,3-c]pyridin-6-yl]-(3-endo-hydroxy-8-azabicyclo[3.2.1]octan-8-yl)methanone]	< 100 nM	< 1000 nM	–	–
O=C(c1cc2c(cn1)c(-c1cnc3c(F)cc(F)cn13)nn2CC(F)(F)F)N1C2CCC1CC(O)C2 (stereo not drawn) [Compound 171, [3-(6,8-Difluoro-imidazo[1,2-a]pyridin-3-yl)-1-(2,2,2-trifluoro-ethyl)-1H-pyrazolo[4,3-c]pyridin-6-yl]-(3-exo-hydroxy-8-aza-bicyclo[3.2.1]oct-8-yl)-methanone]	–	–	< 100 nM	< 1000 nM
O=C(c1cc2c(cn1)c(-c1cnc3c(F)cc(F)cn13)nn2CC(F)(F)F)N1CCC(CO)CC1 [Compound 165, [3-(6,8-Difluoro-imidazo[1,2-a]pyridin-3-yl)-1-(2,2,2-trifluoro-ethyl)-1H-pyrazolo[4,3-c]pyridin-6-yl]-(4-hydroxymethyl-piperidin-1-yl)-methanone]	< 100 nM	< 1000 nM	–	–
CC1(C)CC(O)CCN1C(=O)c1cc2c(cn1)c(-c1coc3ccccc13)nn2CS(C)(=O)=O (centres unmarked) [Compound 35, (3-Benzofuran-3-yl-1-methanesulfonylmethyl-1H-pyrazolo[4,3-c]pyridin-6-yl)-(4-hydroxy-2,2 dimethyl-piperidin-1-yl)-methanone]	< 100 nM	< 1000 nM	–	–
O=C(c1cc2c(cn1)c(-c1cnc3c(F)cc(F)cn13)nn2CC(F)(F)F)N1CC2CCC(C1)C2O (stereo not drawn) [Compound 170, [3-(6,8-Difluoro-imidazo[1,2-a]pyridin-3-yl)-1-(2,2,2-trifluoro-ethyl)-1H-pyrazolo[4,3-c]pyridin-6-yl]-(8-exo-hydroxy-3-aza-bicyclo[3.2.1]oct-3-yl)-methanone]	< 100 nM	< 1000 nM	–	–
O=C(c1cc2c(cn1)c(-c1cnc3ccc(F)cn13)nn2CC(F)(F)F)N1CCC(O)CC1 [Compound 131, [3-(6-Fluoro-imidazo[1,2-a]pyridin-3-yl)-1-(2,2,2-trifluoro-ethyl)-1H-pyrazolo[4,3-c]pyridin-6-yl]-(4-hydroxy-piperidin-1-yl)-methanone]	< 100 nM	< 1000 nM	–	–
CS(=O)(=O)Cn1nc(-c2coc3ccccc23)c2cnc(C(=O)N3CCCOCC3)cc21 [Compound 16, (3-Benzofuran-3-yl-1-methanesulfonylmethyl-1H-pyrazolo[4,3-c]pyridine-6-yl)-1,4-oxazepan-4-yl-methanone]	< 100 nM	< 100 nM	–	–
Cc1ccc2ncc(-c3nn(CC(F)(F)F)c4cc(C(=O)N5CCCCCC5)ncc34)n2c1 [Compound 61, Azepan-1-yl-[3-(6-methyl-imidazo[1,2-a]pyridin-3-yl)-1-(2,2,2-trifluoro-ethyl)-1H-pyrazolo[4,3-c]pyridin-6-yl]-methanone]	< 100 nM	< 1000 nM	–	–
O=C(c1cc2c(cn1)c(-c1cnc3ccc(O)cn13)nn2CC(F)(F)F)N1CCCCCC1 [Compound 68, Azepan-1-yl-[3-(6-hydroxy-imidazo[1,2-a]pyridin-3-yl)-1-(2,2,2-trifluoro-ethyl)-1H-pyrazolo[4,3-c]pyridin-6-yl]-methanone]	< 100 nM	< 1000 nM	–	–
CS(=O)(=O)Cn1nc(-c2coc3ccccc23)c2cnc(C(=O)N3CC4CCC(C3)C4O)cc21 (stereo not drawn) [Compound 30, (3-Benzofuran-3-yl-1-methanesulfonylmethyl-1H-pyrazolo[4,3-c]pyridin-6-yl)-(8-endo-hydroxy-3-aza-bicyclo[3.2.1]oct-3-yl)-methanone]	< 100 nM	< 100 nM	–	–
O=C(c1cc2c(cn1)c(-c1cnc3c(F)cc(F)cn13)nn2CC(F)(F)F)N1CC2CCC(C2)C1 [Compound 139, (3-Aza-bicyclo[3.2.1]oct-3-yl)-[3-(6,8-difluoro-imidazo[1,2-a]pyridin-3-yl)-1-(2,2,2-trifluoro-ethyl)-1H-pyrazolo[4,3-c]pyridin-6-yl]-methanone]	< 100 nM	< 100 nM	–	–
[2H]C1([2H])COCCN(C(=O)c2cc3c(cn2)c(-c2coc4ccc(F)cc24)nn3CC(F)(F)F)C1 [Compound 120, [3-(5-fluorobenzofuran-3-yl)-1-(2,2,2-trifluoroethyl)pyrazolo[4,3-c]pyridin-6-yl]-(6,6-dideuterio-1,4-oxazepan-4-yl)methanone]	< 100 nM	< 100 nM	–	–

Further lines, with some results ahead:

IC50 (human A2A receptors)	IC50 (human A2B receptors)	SMILES	IC50 (human A2A receptors; recombinant HEK293 cells expressing human A2A receptor, agonist NECA, cAMP HTRF, 15 min incubation)	IC50 (human A2B receptors; recombinant HEK293 cells expressing human A2B receptor, agonist NECA, cAMP HTRF, 15 min incubation)
< 100 nM	< 1000 nM	O=C(c1cc2c(cn1)c(-c1c[nH]c3ccccc13)nn2CC(F)(F)F)N1CCCOCC1 [Compound 96, [3-(1H-Indol-3-yl)-1-(2,2,2-trifluoro-ethyl)-1H-pyrazolo[4,3-c]pyridine-6-yl]-1,4-oxazepan-4-yl-methanone]	–	–
< 100 nM	< 1000 nM	Cc1oc2ccccc2c1-c1nn(CC(F)(F)F)c2cc(C(=O)N3CCCOCC3)ncc12 [Compound 126, [3-(2-methylbenzofuran-3-yl)-1-(2,2,2-trifluoroethyl)pyrazolo[4,3-c]pyridin-6-yl]-(1,4-oxazepan-4-yl)methanone]	–	–
< 100 nM	< 1000 nM	O=C(c1cc2c(cn1)c(-c1cnc3c(F)cc(F)cn13)nn2CC(F)(F)F)N1CCC(O)(c2cccnc2)CC1 [Compound 147, [3-(6,8-Difluoro-imidazo[1,2-a]pyridin-3-yl)-1-(2,2,2-trifluoro-ethyl)-1H-pyrazolo[4,3-c]pyridin-6-yl]-(4′-hydroxy-3′,4′,5′,6′-tetrahydro-2′H-[3,4′]bipyridinyl-1′-yl)-methanone]	–	–
< 100 nM	< 100 nM	O=C(c1cc2c(cn1)c(-c1cnc3c(F)cc(F)cn13)nn2CC(F)(F)F)N1CC2CC3CC(C2)CC1C3 [Compound 169, (4-Aza-tricyclo[4.3.1.1*3,8*]undec-4-yl)-[3-(6,8-difluoro-imidazo[1,2-a]pyridin-3-yl)-1-(2,2,2-trifluoro-ethyl)-1H-pyrazolo[4,3-c]pyridin-6-yl]-methanone]	–	–
< 100 nM	< 1000 nM	CS(=O)(=O)Cn1nc(-c2cnc3c(F)cc(F)cn23)c2cnc(C(=O)N3CC4CCC(C3)O4)cc21 [Compound 27, [3-(6,8-Difluoro-imidazo[1,2-a]pyridin-3-yl)-1-methanesulfonylmethyl-1H-pyrazolo[4,3 c]pyridin-6-yl]-(8-oxa-3-aza-bicyclo[3.2.1]oct-3-yl)-methanone]	–	–
< 100 nM	< 1000 nM	CC(C)(C)OC(=O)NC1COCCN(C(=O)c2cc3c(cn2)c(-c2cnc4c(F)cc(F)cn24)nn3CC(F)(F)F)C1 (centres unmarked) [Compound 204, {4-[3-(6,8-Difluoro-imidazo[1,2-a]pyridin-3-yl)-1-(2,2,2-trifluoro-ethyl)-1H-pyrazolo[4,3-c]pyridine-6-carbonyl]-1,4-oxazepan-6-yl}-carbamic Acid Tert-Butyl Ester]	–	–
< 100 nM	< 1000 nM	CC1(O)C2CCC1CN(C(=O)c1cc3c(cn1)c(-c1cnc4c(F)cc(F)cn14)nn3CC(F)(F)F)C2 (stereo not drawn) [Compound 162, [3-(6,8-Difluoro-imidazo[1,2-a]pyridin-3-yl)-1-(2,2,2-trifluoro-ethyl)-1H-pyrazolo[4,3-c]pyridin-6-yl]-(8-endo-hydroxy-8-exo-methyl-3-aza-bicyclo[3.2.1]oct-3-yl)-methanone]	–	–
